# In BindingDB's records for doi:10.1016/j.bmcl.2003.10.062 (Technische Universitat Braunschweig, 2004):
# How the values were obtained:
# [1] = molecular target: T1, Cyclin-dependent kinase 5 activator 1 [99-307] (Homo sapiens, UniProt Q00535); assay: Kinase Inhibition Assay; conditions: pH 7.2; 30 °C
# T1 construct: 99-307
# [2] = molecular target: Cyclin-dependent kinase 1/G2/mitotic-specific cyclin-B (Marthasterias glacialis, UniProt P15206+Q9DGD3); assay: Kinase Inhibition Assay; conditions: pH 7.2; 30 °C
# Chain of Cyclin-dependent kinase 1/G2/mitotic-specific cyclin-B (Q9DGD3 whole entry): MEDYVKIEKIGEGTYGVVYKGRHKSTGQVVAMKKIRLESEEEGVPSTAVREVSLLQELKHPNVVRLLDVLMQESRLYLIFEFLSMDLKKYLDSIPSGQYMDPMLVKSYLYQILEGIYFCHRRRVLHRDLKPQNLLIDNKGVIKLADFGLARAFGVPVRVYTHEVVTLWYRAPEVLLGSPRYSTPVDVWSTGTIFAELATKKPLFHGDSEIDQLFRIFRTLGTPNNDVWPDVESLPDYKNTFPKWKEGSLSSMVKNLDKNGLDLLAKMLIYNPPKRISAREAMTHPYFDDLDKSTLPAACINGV
# Chain of Cyclin-dependent kinase 1/G2/mitotic-specific cyclin-B (P15206 whole entry): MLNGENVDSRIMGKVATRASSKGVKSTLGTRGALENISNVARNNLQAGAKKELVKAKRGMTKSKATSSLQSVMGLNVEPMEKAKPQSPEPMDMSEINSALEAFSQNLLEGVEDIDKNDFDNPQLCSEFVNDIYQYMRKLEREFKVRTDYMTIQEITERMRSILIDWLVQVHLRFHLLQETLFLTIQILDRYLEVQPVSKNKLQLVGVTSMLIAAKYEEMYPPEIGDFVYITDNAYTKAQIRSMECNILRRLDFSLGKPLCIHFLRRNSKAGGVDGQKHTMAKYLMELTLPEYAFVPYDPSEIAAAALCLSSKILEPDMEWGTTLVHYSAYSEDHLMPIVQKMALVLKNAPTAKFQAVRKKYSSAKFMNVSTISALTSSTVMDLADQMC
# T1 sequence (Q15078 99-307): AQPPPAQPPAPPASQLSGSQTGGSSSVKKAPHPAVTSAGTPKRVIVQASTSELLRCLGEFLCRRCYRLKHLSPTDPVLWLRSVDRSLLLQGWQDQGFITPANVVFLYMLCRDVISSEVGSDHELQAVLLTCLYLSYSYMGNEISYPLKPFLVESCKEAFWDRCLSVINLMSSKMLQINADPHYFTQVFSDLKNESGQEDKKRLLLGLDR
# T1 sequence (Q00535 whole entry): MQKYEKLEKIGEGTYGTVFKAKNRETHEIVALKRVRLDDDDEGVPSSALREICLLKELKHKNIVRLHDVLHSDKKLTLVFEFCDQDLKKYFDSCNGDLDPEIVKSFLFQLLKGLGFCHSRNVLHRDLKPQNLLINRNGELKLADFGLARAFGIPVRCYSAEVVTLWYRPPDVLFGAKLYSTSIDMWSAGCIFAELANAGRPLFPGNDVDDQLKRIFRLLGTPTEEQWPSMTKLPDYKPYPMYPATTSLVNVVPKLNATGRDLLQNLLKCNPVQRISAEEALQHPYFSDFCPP
smiles,measurement,setting,value
"O=Nc1c(C2C(=O)Nc3ccc(I)cc32)[nH]c2ccccc12 (configuration not stated) [3-[(2Z,3E)-3-(hydroxyimino)-2,3-dihydro-1H-indol-2-ylidene]-5-iodo-2,3-dihydro-1H-indol-2-one]",IC50,[1],20 nM
same,IC50,[2],25 nM
